The source of these data is PubChem BioAssay (NCI).

Test systems include COLO 205 colon; NCI-H226 lung; SK-MEL-5 melanoma; MOLT-4 leukemia; SF-268 CNS; T-47D breast; HL-60(TB) leukemia; K-562 leukemia; 786-0 renal; MDA-N; SK-MEL-2 melanoma; BT-549 breast; A498 renal; HCT-116 colon; SR leukemia.
What all share (assay): NCI-60 cell line screen, 48 h

Molecules are shown by their SMILES.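 Step 1: Grow cells in 96-well plates. Step 2: Expose to compound for 48 hours at 5 concentrations. Step 3: Interpolate endpoints linearly; if unreached, use highest concentration. TGI: total growth inhibition.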

For the molecule `O[C@@]1(c2cccs2)c2cccc(Cl)c2[C@](O)(c2cccs2)c2cccc(Cl)c21`, the TGI in the experiment on COLO 205 colon is 38.6 µM; in the experiment with NCI-H226 lung, 57.1 µM; in the experiment with SK-MEL-5 melanoma it was 34.7 µM; in the experiment with MOLT-4 leukemia, 56.3 µM; in the experiment with SF-268 CNS it was 66.8 µM; in the experiment with T-47D breast, > 100 µM. The TGI with HL-60(TB) leukemia was 46.3 µM; in the experiment with K-562 leukemia, > 100 µM; in the experiment with 786-0 renal, 32.5 µM; in the experiment on MDA-N, 36.4 µM; in the experiment with SK-MEL-2 melanoma, 42.4 µM; with BT-549 breast, 48.1 µM. For the same molecule, the TGI in the experiment with A498 renal was determined as 25.8 µM; with HCT-116 colon it was 27.4 µM.

Regarding `CNC(=O)CCNC(=O)CCC(=O)N(C)C`, the TGI with COLO 205 colon, in the experiment with SR leukemia, with SK-MEL-5 melanoma, with MOLT-4 leukemia, in the experiment on SF-268 CNS and with T-47D breast was > 100 µM in each case. In addition, the TGI with K-562 leukemia, in the experiment on 786-0 renal, in the experiment with MDA-N, in the experiment on SK-MEL-2 melanoma, in the experiment on A498 renal and in the experiment with HCT-116 colon was > 100 µM each time.

Turning to `CC1(C)CC(=O)/C(=C/C2CCNC2=S)C(=O)N1` (configuration not stated), the TGI with COLO 205 colon, in the experiment on SR leukemia, in the experiment on NCI-H226 lung, with SK-MEL-5 melanoma, in the experiment on MOLT-4 leukemia and in the experiment on SF-268 CNS was > 100 µM each time. The TGI in the experiment on T-47D breast, with HL-60(TB) leukemia, in the experiment on K-562 leukemia, in the experiment on 786-0 renal, with MDA-N and in the experiment on SK-MEL-2 melanoma was > 100 µM throughout. The TGI in the experiment on A498 renal and with HCT-116 colon was > 100 µM throughout.

Regarding `N=C(N)C1CN(CCc2cnc[nH]2)C(=O)NC1=O` (configuration not stated), the TGI in the experiment with COLO 205 colon, in the experiment on SR leukemia, in the experiment on SK-MEL-5 melanoma, in the experiment with MOLT-4 leukemia, with SF-268 CNS and in the experiment with HL-60(TB) leukemia was > 100 µM each time. Also, the TGI in the experiment with 786-0 renal, in the experiment with MDA-N, in the experiment on BT-549 breast, in the experiment on A498 renal and with HCT-116 colon was > 100 µM in each case.

As for `COC1(C(C)(C)C)C=C(C(C)(C)C)P(=O)(O)O1` (configuration not stated), the TGI in the experiment with COLO 205 colon, in the experiment with SR leukemia, in the experiment with SK-MEL-5 melanoma, in the experiment on SF-268 CNS, in the experiment on T-47D breast and in the experiment with HL-60(TB) leukemia was > 100 µM in each case. Further, the TGI in the experiment on K-562 leukemia, in the experiment on 786-0 renal, with MDA-N, with SK-MEL-2 melanoma, with A498 renal and in the experiment with HCT-116 colon was > 100 µM throughout.

Take `Cc1cccc2[nH]c3cc(O)cc(O)c3c(=O)c12`: the TGI with COLO 205 colon, in the experiment with NCI-H226 lung, with SK-MEL-5 melanoma, in the experiment on MOLT-4 leukemia, in the experiment with SF-268 CNS and in the experiment on T-47D breast was > 10 µM throughout. For the same molecule, the TGI in the experiment on K-562 leukemia, in the experiment on 786-0 renal, with MDA-N, in the experiment on SK-MEL-2 melanoma, in the experiment on BT-549 breast and with HCT-116 colon was > 10 µM in each case.

Consider `CCCCC1Cc2ccccc2-c2n1c1ccccc1[n+]2C` (configuration not stated), for which the TGI in the experiment on SR leukemia is 58.5 µM; in the experiment with NCI-H226 lung it was > 100 µM; in the experiment with SK-MEL-5 melanoma it was 18 µM; in the experiment on MOLT-4 leukemia it was 81.8 µM; in the experiment on SF-268 CNS, > 100 µM; in the experiment with T-47D breast, 7.3 µM. Also, the TGI with HL-60(TB) leukemia is 22.9 µM; with K-562 leukemia it was > 100 µM; in the experiment with 786-0 renal, > 100 µM; in the experiment on MDA-N, 64.5 µM; in the experiment on SK-MEL-2 melanoma, 35.7 µM; in the experiment on A498 renal, > 100 µM. The TGI with HCT-116 colon was > 100 µM.

For the molecule `CCC(C)C(C(=O)N/N=C1/SCC(=O)N1C)C(=O)N/N=C1/SCC(=O)N1C` (configuration not stated), the TGI in the experiment on COLO 205 colon, with NCI-H226 lung, with SK-MEL-5 melanoma, in the experiment with MOLT-4 leukemia, in the experiment with SF-268 CNS and in the experiment with T-47D breast was > 100 µM each time. In addition, the TGI is 7.65 µM in the experiment with HL-60(TB) leukemia; > 100 µM with K-562 leukemia; > 100 µM in the experiment on 786-0 renal; > 100 µM in the experiment on MDA-N; > 100 µM in the experiment with SK-MEL-2 melanoma; > 100 µM in the experiment on BT-549 breast. For the same molecule, the TGI with A498 renal and with HCT-116 colon was > 100 µM throughout.

`N#Cc1nc(C2CC2)oc1N`: the TGI in the experiment on COLO 205 colon, with SR leukemia, in the experiment on NCI-H226 lung, in the experiment on MOLT-4 leukemia, in the experiment on SF-268 CNS and in the experiment on T-47D breast was > 100 µM in each case. For the same molecule, the TGI in the experiment on K-562 leukemia, in the experiment on 786-0 renal, with MDA-N, in the experiment with SK-MEL-2 melanoma, with BT-549 breast and in the experiment with HCT-116 colon was > 100 µM in each case.

As to `COC(=O)CCC1(C)C2CCC1(C)/C(=N/O)C2` (configuration not stated), the TGI in the experiment on COLO 205 colon, in the experiment on NCI-H226 lung, in the experiment on SK-MEL-5 melanoma, in the experiment with MOLT-4 leukemia, in the experiment on SF-268 CNS and with T-47D breast was > 100 µM each time. The TGI in the experiment on K-562 leukemia, with 786-0 renal, in the experiment on MDA-N, with SK-MEL-2 melanoma, in the experiment with BT-549 breast and in the experiment on HCT-116 colon was > 100 µM throughout.

As to `NC(=O)c1cc(-c2ccc(-n3ccnc3)cc2)n[nH]c1=O`, the TGI in the experiment with COLO 205 colon, in the experiment on SR leukemia, with SK-MEL-5 melanoma, in the experiment with MOLT-4 leukemia, with SF-268 CNS and with HL-60(TB) leukemia was > 100 µM throughout. Besides, the TGI in the experiment on 786-0 renal, in the experiment on MDA-N, with BT-549 breast, in the experiment on A498 renal and with HCT-116 colon was > 100 µM each time.
